Measurements from ChEMBL document CHEMBL3046047, “Synthesis and evaluation of anti-inflammatory and analgesic activity of 3-[(5-substituted-1,3,4-oxadiazol-2-yl-thio)acetyl]-2H-chromen-2-ones” (Med Chem Res, 2012).

Assays:
[1] = system: Rattus norvegicus; assay: Toxicity inRattus norvegicus albino (rat) assessed as ulcer index at 200 mg/kg, po after 7 hr relative to control; type: organism-based; set-up: dose 200 mg/kg, route oral; conditions: in vivo
[2] = system: Rattus norvegicus; assay: Acute Anti-inflammatory activity in Rattus norvegicus albino (rat) assessed as inhibition of carrageenan-induced paw edema at 13.5 mg/kg, po administered 1 hr after carrageenan challenge measured after 5 hr relative to control; type: functional
[3] = system: Rattus norvegicus; assay: Acute Anti-inflammatory activity in Rattus norvegicus albino (rat) assessed as inhibition of carrageenan-induced paw edema at 13.5 mg/kg, po administered 1 hr after carrageenan challenge measured after 3 hr relative to control; type: functional
[4] = system: Mus musculus; assay: Analgesic activity in Mus musculus albino (mouse) assessed as protection against acetic acid-induced writhing at 135 mg/kg, po administered 30 min before acetic acid challenge measured after 15 min relative to control; type: functional
[5] = system: Mus musculus; assay: Analgesic activity in Mus musculus albino (mouse) assessed as protection against acetic acid-induced writhing at 200 mg/kg, po administered 30 min before acetic acid challenge measured after 15 min relative to control; type: functional
[6] = system: Rattus norvegicus; assay: Acute Anti-inflammatory activity in Rattus norvegicus albino (rat) assessed as inhibition of carrageenan-induced paw edema at 200 mg/kg, po administered 1 hr after carrageenan challenge measured after 5 hr relative to control; type: functional
[7] = system: Mus musculus; assay: Acute toxicity in Mus musculus albino (mouse) assessed as mortality up to 2000 mg/kg, po after 24 hr; type: organism-based; set-up: dose 2000 mg/kg, route oral; conditions: in vivo
[8] = system: Rattus norvegicus; assay: Acute Anti-inflammatory activity inRattus norvegicus albino (rat) assessed as inhibition of carrageenan-induced paw edema at 200 mg/kg, po administered 1 hr after carrageenan challenge measured after 3 hr relative to control; type: functional
[9] = Acute toxicity in po dosed Mus musculus albino (mouse) up to 24 hr; type: organism-based; conditions: in vivo
[10] = system: Mus musculus; assay: Acute toxicity in Mus musculus albino (mouse) assessed as alertness, touch response, and restlessness at 10 to 2000 mg/kg, po after 24 hr; type: organism-based; set-up: dose 10-2000 mg/kg, route oral; conditions: in vivo

| SMILES | UI [1] | inhibition in vivo at 13.5 mg/kg [2] [%] | inhibition in vivo at 13.5 mg/kg [3] [%] | Activity [4] [%] | Activity [5] [%] | inhibition in vivo at 200 mg/kg [6] [%] | Activity [7] | inhibition in vivo at 200 mg/kg [8] [%] | MTD at 24 h [9] [mg/kg] | Activity [10] |
| --- | --- | --- | --- | --- | --- | --- | --- | --- | --- | --- |
| CC(C(=O)O)c1cccc(C(=O)c2ccccc2)c1 (stereo not given) [KETOPROFEN] | 4.6 |  |  |  |  |  |  |  |  |  |
| O=C(O)Cc1ccccc1Nc1c(Cl)cccc1Cl [DICLOFENAC] | 5.5 | 75 | 79.5 |  |  |  |  |  |  |  |
| CC(=O)Oc1ccccc1C(=O)O [ASPIRIN] |  |  |  | 69 |  |  |  |  |  |  |
| CC(c1cccc(C(=O)c2ccccc2)c1)c1nnc(SCC(=O)c2cc3ccccc3oc2=O)o1 (stereo not given) | 3.2 |  |  |  | 73 | 60.9 | Non-toxic | 65.4 | 200 | Toxic |
| CC(C)Cc1ccc(C(C)c2nnc(SCC(=O)c3cc4ccccc4oc3=O)o2)cc1 (stereo not given) |  |  |  |  |  | 46.1 | Non-toxic | 45 | 200 | Toxic |
| O=C(CSc1nnc(Cc2ccccc2Nc2c(Cl)cccc2Cl)o1)c1cc2ccccc2oc1=O | 1.7 |  |  |  | 68 | 64.5 | Non-toxic | 81.3 | 200 | Toxic |
| O=C(c1ccccc1)c1ccc2n1CCC2C(=O)O (stereo not given) [KETOROLAC] | 4.9 |  |  |  |  |  |  |  |  |  |
| O=C(CSc1nnc(-c2ccccc2O)o1)c1cc2ccccc2oc1=O |  |  |  |  |  | 48.7 | Non-toxic | 46.3 | 200 | Toxic |
| CC(=O)Nc1ccc(OCc2nnc(SCC(=O)c3cc4ccccc4oc3=O)o2)cc1 |  |  |  |  |  | 43.4 | Non-toxic | 56.3 | 200 | Toxic |
| CC(C(=O)O)c1ccc(-c2ccccc2)c(F)c1 (stereo not given) [FLURBIPROFEN] | 5.3 |  |  |  |  |  |  |  |  |  |
| C[C@H](c1ccc(-c2ccccc2)c(F)c1)c1nnc(SCC(=O)c2cc3ccccc3oc2=O)o1 | 2.3 |  |  |  | 60 | 61.6 | Non-toxic | 74.9 | 200 | Toxic |
| O=C(Cc1ccccc1Nc1c(Cl)cccc1Cl)OCc1nnc(SCC(=O)c2cc3ccccc3oc2=O)o1 |  |  |  |  |  | 26.3 | Non-toxic | 37.5 | 200 | Toxic |
| COc1ccc2c(c1)c(Cc1nnc(SCC(=O)c3cc4ccccc4oc3=O)o1)c(C)n2C(=O)c1ccc(Cl)cc1 |  |  |  |  |  | 51.3 | Non-toxic | 56.9 | 200 | Toxic |
| O=C(CSc1nnc(C2CCn3c(C(=O)c4ccccc4)ccc32)o1)c1cc2ccccc2oc1=O (stereo not given) | 4.4 |  |  |  | 54 | 71.3 | Non-toxic | 67.4 | 200 | Toxic |
